# From patent publication US10662229B2, “Spider venom peptides and methods of use for modulating sodium channels” (priority 2016, dated 2020)
# Entries after “also recorded” stand apart in the source; their conditions may differ.
# Tests used:
# [1] = Stability of Pnc1a in solutions (RP-HPLC/MS); format: physicochemical; conditions: room temperature
# hNav1.4 = target: T1, hNav1.4 (Homo sapiens, UniProt P35499); assay: FLIPR membrane potential assay, hNav1.4; format: cell-based
# T1 construct: host or cells: HEK293
# Procedure, shortened: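 Human Nav channels, each stably expressed in HEK293; agonist-evoked depolarisation monitored via red membrane potential dye on FLIPR^TETRA.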
# [2] = test system: OD1-induced spontaneous pain behaviours in mice; assay: OD1 model of spontaneous pain behaviours; format: in vivo
# Method: For behavioural assessment adult male C57BL/6J mice aged 6-8 weeks were used. Animals were housed in groups of 3 or 4 per cage, under 12 h light-dark cycles and had standard rodent chow and water ad libitum.
# OD1 was diluted in phosphate-buffered saline/0.1% BSA (300 nM) and administered by shallow subcutaneous (intraplantar) injection to the left hind paw of mice in a volume of 40 μL under light isoflurane (3%) anesthesia. Mice were then placed individually into polyvinyl boxes (10×10×10 cm), and spontaneous pain behavior (licks and flinches) was counted by an investigator unaware of the treatments received from video recordings for 10 min post-injection.
# hNav1.3 = target: T2, hNav1.3 (Homo sapiens, UniProt Q9NY46); assay: Automated patch clamping (QPatch-16), hNav1.3; format: cell-based; conditions: mean±SEM
# T2 construct: host or cells: HEK293
# Method: (§1) HEK293 cells stably expressing hNav1.1-1.7 or CHO cells stably expressing hNav1.8 (as described in Example 3 above) were cultured in a T-175 flask in selection antibiotic-free media at 37° C. Cells were grown to 70-80% confluence and harvested using Detachin (Bio-Scientific, NSW, Australia) at 37° C. for 2 min. Dissociated cells were then resuspended in Ex-Cell ACF CHO Medium with HEPES (25 mM; Sigma-Aldrich Co.) and allowed to recover on the QStirrer for 30 min.
# (§2) The extracellular solution contained in mM: NaCl 145, KCl 4, CaCl2 2, MgCl2 1, HEPES 10 and glucose 10. The pH was adjusted to 7.4 with NaOH and osmolarity was adjusted with sucrose to 305 mOsm. The intracellular solution contained in mM: CsF 140, ethylene glycol tetraacetic acid (EGTA)/CsOH 1/5, HEPES 10 and NaCl 10. The pH was adjusted to 7.3 with CsOH and osmolarity adjusted with sucrose to 320 mOsm. […]
# (§3) The current-voltage (IV) curve was constructed with a holding potential of −80 mV followed by a pre-pulse of −100 mV for 50 ms and a series of 50 ms step pulses that ranged from −80 to 50 mV in 5 mV increments before returning to a holding potential of −80 mV. Voltage-dependence of activation was determined as normalized Nav conductance (GNa) using: GNa=INa/(Vmemb−Vrev), where Vmemb is the membrane potential and Vrev is the reversal potential for each cell. […]
# hNav1.6 = target: T3, hNav1.6 (Homo sapiens, UniProt Q9UQD0); assay: Automated patch clamping (QPatch-16), hNav1.6; format: cell-based; conditions: mean±SEM
# T3 construct: host or cells: HEK293
# Method: as §1, §2, §3
# hNav1.7 = target: T4, hNav1.7 (Homo sapiens, UniProt Q15858); assay: Automated patch clamping (QPatch-16), hNav1.7; format: cell-based; conditions: for voltage dependence of activation, V50: control −25.1±0.5 mV
# T4 construct: host or cells: HEK293
# Method: as §1
# The extracellular solution contained in mM: NaCl 145, KCl 4, CaCl2 2, MgCl2 1, HEPES 10 and glucose 10. The pH was adjusted to 7.4 with NaOH and osmolarity was adjusted with sucrose to 305 mOsm. The intracellular solution contained in mM: CsF 140, ethylene glycol tetraacetic acid (EGTA)/CsOH 1/5, HEPES 10 and NaCl 10. The pH was adjusted to 7.3 with CsOH and osmolarity adjusted with sucrose to 320 mOsm.
# Whole-cell patch-clamp experiments were performed on a QPatch-16 automated electrophysiology platform (Sophion Bioscience, Ballerup, Denmark) using 16-channel planar patch chip plates (QPlates; Sophion Bioscience) with a patch hole diameter of 1 μm and resistance of 2±0.02 MΩ with the following parameters: positioning pressure −60 mbar, minimum seal resistance 0.1 GΩ, holding potential −100 mV, holding pressure −20 mbar.
# Whole-cell currents were filtered at 5 kHz and acquired at 25 kHz.
# The current-voltage (IV) curve was constructed with a holding potential of −80 mV followed by a pre-pulse of −100 mV for 50 ms and a series of 50 ms step pulses that ranged from −80 to 50 mV in 5 mV increments before returning to a holding potential of −80 mV. Voltage-dependence of activation was determined as normalized Nav conductance (GNa) using: GNa=INa/(Vmemb−Vrev), where Vmemb is the membrane potential and Vrev is the reversal potential for each cell. The voltage of activation data was fitted to a Boltzmann sigmoidal curve using GraphPad Prism, version 6.0.
# hNav1.8 = target: T5, hNav1.8 (Homo sapiens, UniProt Q9Y5Y9); assay: Automated patch clamping (QPatch-16), hNav1.8; format: cell-based
# T5 construct: host or cells: HEK293
# Method: as §1, §2, §3
# hNav1.1 = target: T6, hNav1.1 (Homo sapiens, UniProt P35498); assay: Automated patch clamping (QPatch-16), hNav1.1; format: cell-based; conditions: mean±SEM
# T6 construct: host or cells: HEK293
# Method: as §1, §2, §3
# hERG = target: T7, hERG (Homo sapiens, UniProt Q12809); assay: hERG automated patch clamping in CHO cells; format: cell-based; conditions: 100 nM
# T7 construct: host or cells: CHO
# Method: CHO cells stably expressing hERG (B'SYS GmbH, Witterswil, Switzerland) were cultured in Ham's F-12 medium containing 10% v/v FBS and selection antibiotics as recommended by the manufacturer. Cells were cultured and prepared as described in Example 4.
# The extracellular solution contained in mM: NaCl 145, KCl 4, MgCl2 1, CaCl2 2, HEPES 10 and glucose 10. The pH was adjusted to 7.4 and osmolarity was 305 mOsm. The intracellular solution contained in mM; KCl 120, HEPES 10, CaCl2 5, MgCl2 1.7, K2ATP 4, EGTA 10.
# The pH was adjusted to 7.3 and osmolarity was 292 mOsm.
# Whole-cell patch-clamp experiments were performed on a QPatch-16 automated electrophysiology platform (as described in Example 4). hERG currents were elicited by a depolarization step of +40 mV from a holding potential of −80 mV for 5 s. hERG tail currents were elicited upon partial repolarization to −50 mV for 5 s. The interval of voltages pulses was 15 s.
# T4 sequence (Q15858 whole entry): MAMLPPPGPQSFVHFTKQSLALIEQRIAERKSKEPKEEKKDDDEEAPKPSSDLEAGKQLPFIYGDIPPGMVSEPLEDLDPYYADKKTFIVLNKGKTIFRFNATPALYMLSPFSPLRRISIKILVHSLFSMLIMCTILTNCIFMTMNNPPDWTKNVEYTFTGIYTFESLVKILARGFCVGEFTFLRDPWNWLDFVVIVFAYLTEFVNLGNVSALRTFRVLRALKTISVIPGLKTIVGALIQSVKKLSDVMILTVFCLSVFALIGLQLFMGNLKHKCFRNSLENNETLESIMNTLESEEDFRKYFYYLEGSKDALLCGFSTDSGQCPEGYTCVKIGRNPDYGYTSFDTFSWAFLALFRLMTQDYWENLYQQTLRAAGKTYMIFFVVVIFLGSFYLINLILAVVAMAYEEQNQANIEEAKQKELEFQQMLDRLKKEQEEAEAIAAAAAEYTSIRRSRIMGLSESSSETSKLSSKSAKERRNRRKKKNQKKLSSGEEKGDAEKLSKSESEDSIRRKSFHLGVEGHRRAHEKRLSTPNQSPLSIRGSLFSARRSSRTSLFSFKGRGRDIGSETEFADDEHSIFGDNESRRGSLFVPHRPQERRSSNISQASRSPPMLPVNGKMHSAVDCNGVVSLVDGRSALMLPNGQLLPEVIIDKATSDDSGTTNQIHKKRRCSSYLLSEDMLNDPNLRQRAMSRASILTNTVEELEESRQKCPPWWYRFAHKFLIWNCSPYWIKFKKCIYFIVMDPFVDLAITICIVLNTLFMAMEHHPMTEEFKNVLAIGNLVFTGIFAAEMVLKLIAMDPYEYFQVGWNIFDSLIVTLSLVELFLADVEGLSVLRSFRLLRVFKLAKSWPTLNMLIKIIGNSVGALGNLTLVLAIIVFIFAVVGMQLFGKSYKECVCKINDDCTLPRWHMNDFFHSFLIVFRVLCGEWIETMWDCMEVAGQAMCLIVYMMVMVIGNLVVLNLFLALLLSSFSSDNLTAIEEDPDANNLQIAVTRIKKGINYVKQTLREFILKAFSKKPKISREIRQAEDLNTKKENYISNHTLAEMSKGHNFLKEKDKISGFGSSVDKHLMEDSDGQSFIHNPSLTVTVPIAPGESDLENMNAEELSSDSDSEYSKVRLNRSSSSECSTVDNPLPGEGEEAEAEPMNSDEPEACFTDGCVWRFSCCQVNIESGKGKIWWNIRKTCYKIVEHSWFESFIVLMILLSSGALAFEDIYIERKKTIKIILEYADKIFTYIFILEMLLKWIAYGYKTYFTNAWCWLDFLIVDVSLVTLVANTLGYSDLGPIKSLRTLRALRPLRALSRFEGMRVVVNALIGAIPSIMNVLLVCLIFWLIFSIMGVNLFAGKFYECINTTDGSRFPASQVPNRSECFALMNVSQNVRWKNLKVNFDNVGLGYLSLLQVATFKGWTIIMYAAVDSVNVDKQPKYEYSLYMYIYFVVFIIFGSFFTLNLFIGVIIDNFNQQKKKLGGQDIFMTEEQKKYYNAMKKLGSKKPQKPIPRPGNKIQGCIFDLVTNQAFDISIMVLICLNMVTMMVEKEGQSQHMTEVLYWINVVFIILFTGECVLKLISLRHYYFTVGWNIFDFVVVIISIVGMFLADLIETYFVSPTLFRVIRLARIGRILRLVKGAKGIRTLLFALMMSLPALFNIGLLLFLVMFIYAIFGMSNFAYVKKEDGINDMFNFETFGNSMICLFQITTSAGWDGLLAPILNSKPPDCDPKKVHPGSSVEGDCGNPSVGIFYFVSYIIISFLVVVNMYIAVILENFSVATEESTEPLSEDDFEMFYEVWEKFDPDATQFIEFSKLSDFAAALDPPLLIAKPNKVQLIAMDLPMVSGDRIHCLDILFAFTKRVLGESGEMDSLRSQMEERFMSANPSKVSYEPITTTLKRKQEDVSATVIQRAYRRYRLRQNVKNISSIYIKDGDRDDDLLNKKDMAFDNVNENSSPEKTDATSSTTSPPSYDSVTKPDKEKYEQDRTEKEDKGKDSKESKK
# T7 sequence (Q12809 whole entry): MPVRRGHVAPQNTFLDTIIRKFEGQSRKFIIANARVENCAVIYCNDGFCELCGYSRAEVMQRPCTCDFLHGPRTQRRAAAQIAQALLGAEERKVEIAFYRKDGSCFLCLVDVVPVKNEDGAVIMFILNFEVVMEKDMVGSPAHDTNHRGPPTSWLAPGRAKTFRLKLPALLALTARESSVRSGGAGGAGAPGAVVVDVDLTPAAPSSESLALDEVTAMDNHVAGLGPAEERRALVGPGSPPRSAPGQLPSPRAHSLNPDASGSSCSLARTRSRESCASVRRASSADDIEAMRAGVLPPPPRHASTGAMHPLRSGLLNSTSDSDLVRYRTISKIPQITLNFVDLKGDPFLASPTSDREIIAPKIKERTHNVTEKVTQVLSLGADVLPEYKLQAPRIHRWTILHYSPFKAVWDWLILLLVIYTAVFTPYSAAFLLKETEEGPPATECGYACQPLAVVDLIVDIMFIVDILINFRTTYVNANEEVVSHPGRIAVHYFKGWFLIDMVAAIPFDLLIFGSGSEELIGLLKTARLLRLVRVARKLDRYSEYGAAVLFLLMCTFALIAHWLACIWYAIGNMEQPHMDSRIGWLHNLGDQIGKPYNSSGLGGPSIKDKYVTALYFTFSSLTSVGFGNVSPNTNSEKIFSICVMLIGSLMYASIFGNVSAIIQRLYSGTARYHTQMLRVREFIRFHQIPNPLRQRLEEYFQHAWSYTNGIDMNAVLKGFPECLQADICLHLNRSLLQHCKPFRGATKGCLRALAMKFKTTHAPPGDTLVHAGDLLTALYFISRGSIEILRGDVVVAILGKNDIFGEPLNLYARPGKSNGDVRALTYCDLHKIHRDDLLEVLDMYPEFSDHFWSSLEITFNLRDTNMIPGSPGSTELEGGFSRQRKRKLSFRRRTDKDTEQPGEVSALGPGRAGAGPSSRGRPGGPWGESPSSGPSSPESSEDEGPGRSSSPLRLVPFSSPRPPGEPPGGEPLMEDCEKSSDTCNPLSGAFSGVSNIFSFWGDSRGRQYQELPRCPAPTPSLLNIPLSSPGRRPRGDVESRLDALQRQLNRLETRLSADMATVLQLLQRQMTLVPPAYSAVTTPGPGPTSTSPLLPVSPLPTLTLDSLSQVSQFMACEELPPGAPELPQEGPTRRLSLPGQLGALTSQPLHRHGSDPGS
# T5 sequence (Q9Y5Y9 whole entry): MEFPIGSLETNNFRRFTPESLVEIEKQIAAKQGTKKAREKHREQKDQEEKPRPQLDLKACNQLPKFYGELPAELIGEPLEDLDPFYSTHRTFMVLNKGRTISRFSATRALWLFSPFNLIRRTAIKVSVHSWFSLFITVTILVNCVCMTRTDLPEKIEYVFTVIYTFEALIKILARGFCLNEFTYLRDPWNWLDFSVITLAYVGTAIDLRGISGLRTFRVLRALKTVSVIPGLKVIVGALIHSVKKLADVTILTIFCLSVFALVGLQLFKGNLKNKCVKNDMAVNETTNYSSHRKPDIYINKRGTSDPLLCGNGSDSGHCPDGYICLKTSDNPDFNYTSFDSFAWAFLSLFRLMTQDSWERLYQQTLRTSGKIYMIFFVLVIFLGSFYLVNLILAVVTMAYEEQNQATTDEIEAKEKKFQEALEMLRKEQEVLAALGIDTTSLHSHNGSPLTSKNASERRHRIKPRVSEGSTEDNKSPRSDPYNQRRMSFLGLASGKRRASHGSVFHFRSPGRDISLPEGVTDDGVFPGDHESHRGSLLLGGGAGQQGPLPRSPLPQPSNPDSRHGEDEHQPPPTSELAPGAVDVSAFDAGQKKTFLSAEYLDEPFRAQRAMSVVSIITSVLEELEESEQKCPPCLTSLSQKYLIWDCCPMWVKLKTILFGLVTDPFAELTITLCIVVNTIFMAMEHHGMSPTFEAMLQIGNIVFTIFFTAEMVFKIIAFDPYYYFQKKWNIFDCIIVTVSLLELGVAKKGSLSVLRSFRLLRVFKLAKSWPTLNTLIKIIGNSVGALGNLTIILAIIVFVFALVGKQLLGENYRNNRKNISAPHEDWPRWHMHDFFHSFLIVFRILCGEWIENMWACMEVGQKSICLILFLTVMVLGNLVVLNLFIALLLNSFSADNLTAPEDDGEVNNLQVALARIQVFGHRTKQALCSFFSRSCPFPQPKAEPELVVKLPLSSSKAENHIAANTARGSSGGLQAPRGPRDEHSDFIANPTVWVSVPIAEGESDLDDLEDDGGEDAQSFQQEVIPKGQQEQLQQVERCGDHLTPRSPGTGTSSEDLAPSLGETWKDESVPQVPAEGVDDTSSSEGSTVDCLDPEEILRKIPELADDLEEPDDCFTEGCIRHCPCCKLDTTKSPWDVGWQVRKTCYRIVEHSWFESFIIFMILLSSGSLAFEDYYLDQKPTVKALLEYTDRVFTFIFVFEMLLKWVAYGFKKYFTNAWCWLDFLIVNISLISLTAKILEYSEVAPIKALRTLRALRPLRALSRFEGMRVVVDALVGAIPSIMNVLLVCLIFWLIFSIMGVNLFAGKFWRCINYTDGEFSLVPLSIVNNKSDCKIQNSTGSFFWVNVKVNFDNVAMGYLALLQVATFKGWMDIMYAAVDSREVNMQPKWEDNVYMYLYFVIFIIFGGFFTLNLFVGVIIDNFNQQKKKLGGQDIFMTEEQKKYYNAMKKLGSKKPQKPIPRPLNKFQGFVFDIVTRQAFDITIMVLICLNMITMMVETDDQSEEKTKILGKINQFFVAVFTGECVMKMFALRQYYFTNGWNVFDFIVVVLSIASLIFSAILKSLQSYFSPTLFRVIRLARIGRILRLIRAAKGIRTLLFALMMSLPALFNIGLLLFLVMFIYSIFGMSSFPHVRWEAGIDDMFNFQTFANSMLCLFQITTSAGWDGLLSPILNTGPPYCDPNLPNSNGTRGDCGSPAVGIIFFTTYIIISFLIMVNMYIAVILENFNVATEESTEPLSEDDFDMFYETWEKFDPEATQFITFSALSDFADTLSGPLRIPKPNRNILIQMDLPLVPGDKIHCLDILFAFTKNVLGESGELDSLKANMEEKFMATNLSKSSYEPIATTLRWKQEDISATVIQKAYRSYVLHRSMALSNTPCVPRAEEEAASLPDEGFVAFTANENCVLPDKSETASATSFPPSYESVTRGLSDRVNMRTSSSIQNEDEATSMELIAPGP
smiles,measurement,setting,value
CSCC[C@@H]1NC(=O)[C@H](Cc2ccc(O)cc2)NC(=O)[C@H](CCCNC(=N)N)NC(=O)[C@@H](NC(=O)[C@@H](N)CC(=O)O)CSSC[C@@H]2NC(=O)[C@@H]3CSSC[C@@H](C(=O)N[C@@H](C)C(=O)N[C@@H](Cc4c[nH]c5ccccc45)C(=O)N[C@@H](CC(=O)O)C(=O)N[C@@H](Cc4ccccc4)C(=O)N[C@H](C(=O)N[C@@H](Cc4ccccc4)C(=O)N[C@H](C(=O)O)[C@@H](C)O)[C@@H](C)O)NC(=O)[C@H](Cc4ccc(O)cc4)NC(=O)[C@H](CCCCN)NC(=O)[C@H](CCSC)NC(=O)[C@H](CCCCN)NC(=O)[C@H](CCCNC(=N)N)NC(=O)[C@H](CCCCN)NC(=O)[C@H](CSSC[C@H](NC(=O)[C@H](CC(=O)O)NC(=O)CNC(=O)[C@H](Cc4ccccc4)NC1=O)C(=O)N[C@@H](CCC(=O)O)C(=O)N[C@@H](CCCCN)C(=O)N[C@@H](CC(=O)O)C(=O)N[C@@H](CCC(=O)O)C(=O)N[C@@H](CC(=O)O)C(=O)N3)NC(=O)CNC(=O)[C@H](CC(C)C)NC(=O)[C@H](Cc1cnc[nH]1)NC(=O)[C@H](CCCCN)NC2=O [Pnc1a],time after which no intact peptide remained,"[1]; PBS pH 6.5, 100 μM",12 days
same,time after which no intact peptide remained,"[1]; PBS/saline pH 5.7, 100 μM",25 days
same,stability over the 25 day period,"[1]; bicarbonate buffered saline pH 5.7, 100 μM",remained intact
same,stability over the 25 day period,"[1]; bicarbonate buffered saline pH 7.1, 100 μM",remained intact
same,stability over the 25 day period,"[1]; saline pH 3, 100 μM",remained intact
same,IC50,hNav1.4,11.2 µM
same,spontaneous pain behaviours evoked by OD1,"[2]; intraperitoneal 0.3, 1, 3 mg/kg, 15 min prior to OD1",concentration-dependently reversed; also recorded: dose-dependently reduced
same,spontaneous pain behaviours evoked by OD1,"[2]; intraplantar, co-injected with OD1, 100 nM, 300 nM, 1 μM",concentration-dependently reversed
same,pIC50 Nav1.3,hNav1.3,6.68±0.1 M
same,pIC50 Nav1.6,hNav1.6,6.89±0.1 M
same,"voltage dependence of activation, V50",hNav1.7; 0.3 nM,−28.94±0.66 mV
same,"voltage dependence of activation, V50",hNav1.7; 10 nM,−4.40±2.2 mV
same,effect on the voltage dependence of fast inactivation,hNav1.7; 100 nM,no effect
same,effect on the voltage dependence of slow inactivation,hNav1.7; 100 nM,no effect
same,"voltage dependence of activation, V50",hNav1.7; 100 nM,−3.82±0.8 mV
same,IC50,hNav1.8,47.9 µM
same,pIC50 Nav1.1,hNav1.1,7.43±0.1 M
same,effect on hERG peak tail current,hERG,did not have a significant effect
same,hERG peak tail current,hERG; control 539±13 pA,504±38 pA
